Four compounds from ChEMBL document CHEMBL1142450, “3-(Imidazolyl methyl)-3-aza-bicyclo[3.1.0]hexan-6-yl)methyl ethers: a novel series of mGluR2 positive allosteric modulators” (Bioorg Med Chem Lett, 2008) can be followed below.

Holding throughout (assay type): ADME, organism-based
The nature of series [1]: Fraction absorbed in Sprague-Dawley rat at 5 mg/kg, po. Further details: dose 5 mg/kg, route oral. Conditions: in vivo, read-out: Fabs.
The nature of series [2]: Oral bioavailability in Sprague-Dawley rat at 5 mg/kg. As to conditions: in vivo.
Series [3] in a line: Ratio of drug level in brain to plasma in Sprague-Dawley rat at 10 mg/kg, sc. Further details: dose 10 mg/kg, route subcutaneous. Conditions: brain and plasma, read-out: BPR.

`Cn1c(CN2C[C@@H]3C(COc4ccccc4)[C@@H]3C2)nc2ccccc21` (stereo partly drawn): the Fa in series [1] is 5%. Moreover, the bioavailability in series [2] was < 2%. Moreover, in series [3], the Kp turned out to be 2.
Turning to `Cn1c(CN2C[C@@H]3C(COc4ccc(C(F)(F)F)cn4)[C@@H]3C2)nc2ccccc21` (stereo partly drawn), the bioavailability in series [2] was determined as 27%.
As to `Cn1c(CN2C[C@@H]3C(COc4ccc(Cl)cn4)[C@@H]3C2)nc2ccccc21` (stereo partly drawn), the Fa in series [1] was 72%. Besides, the bioavailability in series [2] is 20%.
The corresponding values for `Cn1c(CN2C[C@@H]3C(COc4cccc(Cl)c4)[C@@H]3C2)nc2ncccc21` (stereo partly drawn) are 84% and 79%.

As usually defined, the bioavailability is the share of a dose that reaches the circulation, judged against a reference dose that is usually intravenous. A low value points to poor availability.
